The assay deals with Recombinant human Cbl-b (aa 36-427) (Homo sapiens (Human), UniProt Q13191). Briefly: Cbl-b Biochemical Assay (TR-FRET). Particulars: read-out: TR-FRET hCbl-b IC50. The method in brief: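 Two-step TR-FRET: 6 nM biotinylated Cbl-b preincubated 30-60 min with compound, then 60 min at RT with 1-2.5 nM Src-Zap70 and 0.5 mM ATP in HEPES pH 7.0 buffer, 1% DMSO. Stopped with 5 mM EDTA plus 100 nM UBE2D2-Ub-FL-BODIPY and 1 nM streptavidin-Tb, 60 min; 520 nm signal; IC50 from 4-parameter fit.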
Recombinant human Cbl-b (aa 36-427), sequence (Q13191 36-427): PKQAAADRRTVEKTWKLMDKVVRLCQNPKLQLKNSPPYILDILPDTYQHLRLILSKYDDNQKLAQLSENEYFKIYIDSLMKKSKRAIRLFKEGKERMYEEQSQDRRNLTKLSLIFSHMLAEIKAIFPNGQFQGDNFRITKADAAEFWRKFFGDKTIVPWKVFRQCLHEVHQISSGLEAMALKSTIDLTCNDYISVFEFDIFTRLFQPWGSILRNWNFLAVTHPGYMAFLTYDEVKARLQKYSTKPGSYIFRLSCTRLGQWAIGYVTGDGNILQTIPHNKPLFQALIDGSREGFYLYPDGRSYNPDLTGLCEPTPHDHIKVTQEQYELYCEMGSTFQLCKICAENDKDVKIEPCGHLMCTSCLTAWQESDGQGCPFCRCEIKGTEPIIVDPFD
For `CCOc1cc(-c2c(-c3nncn3C)cnn2C)cc(N2Cc3c(cccc3C(F)(F)F)C2=O)c1` [AAI-7, 2-(3-Ethoxy-5-(1-methyl-4-(4-methyl-4H-1,2,4-triazol-3-yl)-1H-pyrazol-5-yl)phenyl)-4-(trifluoromethyl) isoindolin-1-one], the IC50 is 0.2 to 1 µM. For the compound `CCNc1cc(-c2ccccc2-c2nncn2C)cc(N2Cc3c(cc(CN4CCC5(CC4)CC5)cc3C(F)(F)F)C2=O)n1` [AI-2, 6-((6-Azaspiro[2.5]octan-6-yl)methyl)-2-(6-(ethylamino)-4-(2-(4-methyl-4H-1,2,4-triazol-3-yl)phenyl)pyridin-2-yl)-4-(trifluoromethyl)isoindolin-1-one], the IC50 was not above 0.2 µM. For `Cn1cnnc1-c1ccccc1-c1cccc(N2Cc3c(cc(CN[C@@H]4CCC[C@H]4O)cc3C(F)(F)F)C2=O)c1` [Example W-2, 6-((((1R,2R)-2-Hydroxycyclopentyl)amino)methyl)-2-(2′-(4-methyl-4H-1,2,4-triazol-3-yl)-[1,1′-biphenyl]-3-yl)-4-(trifluoromethyl)isoindolin-1-one] the value was not above 0.2 µM; for `CCNc1cc(-c2c(-c3nncn3C)cnn2C)cc(NC(=O)c2cc(C)cc(C3CC3)n2)n1` [ABW-3, 6-Cyclopropyl-N-(6-(ethylamino)-4-(1-methyl-4-(4-methyl-4H-1,2,4-triazol-3-yl)-1H-pyrazol-5-yl)pyridin-2-yl)-4-methylpicolinamide], 0.2 to 1 µM; for `Cn1ncnc1-c1ccccc1-c1cccc(N2Cc3c(cccc3C(F)(F)F)C2=O)c1` [AAX-2, 2-(2′-(1-Methyl-1H-1,2,4-triazol-5-yl)-[1,1′-biphenyl]-3-yl)-4-(trifluoromethyl)isoindolin-1-one], 10 to 50 µM. To `Cn1cnnc1-c1ccccc1-c1cccc(NC(=O)c2cc(OCCN3CCCC3)nc(C3CC3)n2)c1` [ABK-7, 2-Cyclopropyl-N-(2′-(4-methyl-4H-1,2,4-triazol-3-yl)-[1,1′-biphenyl]-3-yl)-6-(2-(pyrrolidin-1-yl)ethoxy)pyrimidine-4-carboxamide] belongs 0.2 to 1 µM. Regarding `COC(=O)c1cc(-c2ccccc2-c2nncn2C)cc(N2Cc3c(cccc3C(F)(F)F)C2=O)c1` [Example H-5, Methyl 2′-(4-methyl-4H-1,2,4-triazol-3-yl)-5-(1-oxo-4-(trifluoromethyl)isoindolin-2-yl)-[1,1′-biphenyl]-3-carboxylate], the IC50 was in the range of 10 to 50 µM.

In the case of `CCNc1cc(-c2c(-c3nncn3C)cnn2C)cc(N2Cc3c(cc(CN4CCC[C@H](C)C4)cc3C(F)(F)F)C2=O)n1` [ACF-1, (S)-2-(6-(Ethylamino)-4-(1-methyl-4-(4-methyl-4H-1,2,4-triazol-3-yl)-1H-pyrazol-5-yl)pyridin-2-yl)-6-((3-methylpiperidin-1-yl)methyl)-4-(trifluoromethyl)isoindolin-1-one], the IC50 was not above 0.2 µM. For `Cn1cc(-c2nncn2C)c(-c2cccc(N3Cc4c(cccc4C(F)(F)F)C3=O)c2)n1` [AAL-8, 2-[3-[1-Methyl-4-(4-methyl-1,2,4-triazol-3-yl)pyrazol-3-yl]phenyl]-4-(trifluoromethyl)-3H-isoindol-1-one] the value was 10 to 50 µM; for `Cn1c(O)nnc1-c1cnccc1-c1cccc(N2Cc3c(cccc3C(F)(F)F)C2=O)c1` [AAS-6, 2-(3-(3-(5-Hydroxy-4-methyl-4H-1,2,4-triazol-3-yl)pyridin-4-yl)phenyl)-4-(trifluoromethyl)isoindolin-1-one], 10 to 50 µM; for `Cn1cnnc1-c1ccccc1-c1cccc(N2Cc3c(cc(CN4CC[C@@H](F)C4)cc3C(F)(F)F)C2=O)c1` [Example Y-2, (R)-6-((3-Fluoropyrrolidin-1-yl)methyl)-2-(2′-(4-methyl-4H-1,2,4-triazol-3-yl)-[1,1′-biphenyl]-3-yl)-4-(trifluoromethyl)isoindolin-1-one], 0.2 to 1 µM.

On to `CCNc1cc(-c2ccccc2-c2nncn2C)cc(N2Cc3c(cc(CN[C@H]4CCC[C@H]4O)cc3C(F)(F)F)C2=O)n1` [AR-1, 2-(6-(Ethylamino)-4-(2-(4-methyl-4H-1,2,4-triazol-3-yl)phenyl)pyridin-2-yl)-6-((((1S,2R)-2-hydroxycyclopentyl)amino)methyl)-4-(trifluoromethyl)isoindolin-1-one], for which the IC50 was not above 0.2 µM. For `CCNc1cc(-c2ccccc2-c2nncn2C)cc(N2Cc3c(cc(CN4CCO[C@@H](C)C4)cc3C(F)(F)F)C2=O)n1` [AL-1, (S)-2-(6-(Ethylamino)-4-(2-(4-methyl-4H-1,2,4-triazol-3-yl)phenyl)pyridin-2-yl)-6-((2-methylmorpholino)methyl)-4-(trifluoromethyl)isoindolin-1-one] the value was not above 0.2 µM. For the compound `CCNc1cc(-c2c(-c3nncn3C)cnn2C)cc(CNC(=O)OC(C)(C)C)n1` [ABV-1, tert-Butyl ((6-(ethylamino)-4-(1-methyl-4-(4-methyl-4H-1,2,4-triazol-3-yl)-1H-pyrazol-5-yl)pyridin-2-yl)methyl)carba mate], the IC50 lay in the range of 10 to 50 µM. To `Cc1conc1-c1ccccc1-c1cccc(N2Cc3c(cccc3C(F)(F)F)C2=O)c1` [AAZ-7, 2-(2′-(4-Methylisoxazol-3-yl)-[1,1′-biphenyl]-3-yl)-4-(trifluoromethyl)isoindolin-1-one] belongs 1 to 10 µM. To `Cn1cnnc1-c1ccccc1-c1cc(N2Cc3c(cccc3C(F)(F)F)C2=O)nc(C(F)(F)F)c1` [Example J-4, 2-(4-(2-(4-Methyl-4H-1,2,4-triazol-3-yl)phenyl)-6-(trifluoromethyl)pyridin-2-yl)-4-(trifluoromethyl)isoindolin-1-one] belongs 10 to 50 µM. To `CCNc1cc(-c2c(-c3nncn3C)cnn2C)cc(N2Cc3c(cc(CN4CCC5(CC5)C4)cc3C(F)(F)F)C2=O)n1` [ABC-7, 6-((5-Azaspiro [2.4]heptan-5-yl)methyl)-2-(6-(ethylamino)-4-(1-methyl-4-(4-methyl-4H-1,2,4-triazol-3-yl)-1H-pyrazol-5-yl)pyridin-2-yl)-4-(trifluoromethyl)isoindolin-1-one] belongs less than 0.2 µM; to `Cc1nc[nH]c1-c1ccccc1-c1cccc(N2Cc3c(cccc3C(F)(F)F)C2=O)c1` [AAV-6, 2-(2′-(4-Methyl-1H-imidazol-5-yl)-[1,1′-biphenyl]-3-yl)-4-(trifluoromethyl)isoindolin-1-one], 1 to 10 µM. With `CCNc1cc(-c2c(-c3nncn3C)cnn2C)cc(N2Cc3c(cc(CN4CCC(F)C4)cc3C(F)(F)F)C2=O)n1` (stereo not shown) [ABP-3, 2-(6-(Ethylamino)-4-(1-methyl-4-(4-methyl-4H-1,2,4-triazol-3-yl)-1H-pyrazol-5-yl)pyridin-2-yl)-6-((3-fluoropyrrolidin-1-yl)methyl)-4-(trifluoromethyl)isoindolin-1-one], the IC50 was not above 0.2 µM. Turning to `O=C1c2cccc(C(F)(F)F)c2CN1c1cccc(-c2ccccc2-c2nnco2)c1` [ABA-4, 2-(2′-(1,3,4-Oxadiazol-2-yl)-[1,1′-biphenyl]-3-yl)-4-(trifluoromethyl)isoindolin-1-one], the IC50 was in the range of 10 to 50 µM. Take `Cn1cnnc1-c1ccc(C(F)(F)F)cc1-c1cccc(N2Cc3c(cccc3C(F)(F)F)C2=O)c1` [AAG-8, 2-(2′-(4-Methyl-4H-1,2,4-triazol-3-yl)-5′-(trifluoromethyl)-[1,1′-biphenyl]-3-yl)-4-(trifluoromethyl)isoindolin-1-one]: the IC50 lay within 10 to 50 µM. To `CCNc1cc(-c2ccccc2-c2nncn2C)cc(N2Cc3c(cc(CN[C@@H]4CCC[C@H]4O)cc3C(F)(F)F)C2=O)n1` [AO-1, 2-(6-(Ethylamino)-4-(2-(4-methyl-4H-1,2,4-triazol-3-yl)phenyl)pyridin-2-yl)-6-((((1R,2R)-2-hydroxycyclopentyl)amino)methyl)-4-(trifluoromethyl)isoindolin-1-one] belongs not above 0.2 µM; to `CCNc1cc(-c2ccccc2-c2nncn2C)cc(N2Cc3c(cccc3C(F)(F)F)C2=O)n1` [AAU-1, 2-(6-(Ethylamino)-4-(2-(4-methyl-4H-1,2,4-triazol-3-yl)phenyl)pyridin-2-yl)-4-(trifluoromethyl)isoindolin-1-one], not above 0.2 µM; to `CCNc1cc(-c2c(-c3nncn3C)cnn2C)cc(N2Cc3c(cc(CN)cc3C(F)(F)F)C2=O)n1` [ACG-3, 6-(Aminomethyl)-2-(6-(ethylamino)-4-(1-methyl-4-(4-methyl-4H-1,2,4-triazol-3-yl)-1H-pyrazol-5-yl)pyridin-2-yl)-4-(trifluoromethyl)isoindolin-1-one], not above 0.2 µM. For `Cn1cnnc1-c1cnn(C)c1-c1cc(O)nc(N2Cc3c(cccc3C(F)(F)F)C2=O)c1` [AAO-1, 2-(6-Hydroxy-4-(1-methyl-4-(4-methyl-4H-1,2,4-triazol-3-yl)-1H-pyrazol-5-yl)pyridin-2-yl)-4-(trifluoromethyl)isoindolin-1-one] the value was 10 to 50 µM. For `CCNc1cc(-c2c(-c3nncn3C)cnn2C)cc(N2Cc3c(cc(OCCN4CCCC4)cc3C(F)(F)F)C2=O)n1` [ACN-5, 2-(6-(Ethylamino)-4-(1-methyl-4-(4-methyl-4H-1,2,4-triazol-3-yl)-1H-pyrazol-5-yl)pyridin-2-yl)-6-(2-(pyrrolidin-1-yl)ethoxy)-4-(trifluoromethyl)isoindolin-1-one] the value was not above 0.2 µM; for `Cn1cnnc1-c1cnn(C)c1-c1cc(Cl)nc(N2Cc3c(cc(CN4CCC5(CC5)C4)cc3C(F)(F)F)C2=O)c1` [ABD-1, 6-((5-Azaspiro [2.4]heptan-5-yl)methyl)-2-(6-chloro-4-(1-methyl-4-(4-methyl-4H-1,2,4-triazol-3-yl)-1H-pyrazol-5-yl)pyridin-2-yl)-4-(trifluoromethyl)isoindolin-1-one], 0.2 to 1 µM; for `C[C@@H]1CN(Cc2cc3c(c(C(F)(F)F)c2)CN(c2cccc(-c4ccccc4-c4nncn4C)c2)C3=O)CCO1` [Example X-2, (R)-2-(2′-(4-Methyl-4H-1,2,4-triazol-3-yl)-[1,1′-biphenyl]-3-yl)-6-((2-methylmorpholino)methyl)-4-(trifluoromethyl)isoindolin-1-one], not above 0.2 µM.

The values above are taken from patent US12325697B2 (Nimbus Clio, Inc., priority 2021, dated 2025).
